Experimental data reported in US11376252B2, “Multikinase inhibitors and uses in prostatic hyperplasia and urinary track diseases” (AIVIVA BIOPHARMA, INC., priority 2017, dated 2022).
Entries after “also recorded” stand apart in the source; their conditions may differ. Where a name gives a salt, the structure may show the parent alone.

Tests used:
[1] = system: testosterone and/or phenylephrine induced BPH in rats; test: Post-induction study in testosterone and/or phenylephrine induced BPH in rats, intra-prostate injection (Example 2); assay type: in vivo, Male Wistar rats; conditions: for epithelial hyperplasia score (0 not present through 5 severe), representative image: dorsolateral prostate, FIG. 6; for mean prostate weight/100 g body weight compared to vehicle: TE+PE induced days 1-28
Description: Morphologically, BPH is characterized by the formation of a new architecture through the proliferation of the epithelium in pre-existing ducts. Given that stromal cells serve important paracrine regulatory functions in epithelial cell homeostasis, late stage changes in stromal-epithelial interactions could provide insight into BPH progression. A second study was conducted to determine the therapeutic effects of test compounds and vehicle, post-induction in a protocol using testosterone and/or phenylephrine induced BPH in rats.
Male Wistar rats were induced with testosterone (2 mg/kg) plus phenylephrine (5 mg/kg) administered daily by subcutaneous injection on days 1 through 28. Vehicle or test compounds sorafenib (1% w/w), pirfenidone (2.5% w/w), and riociguat (1% w/w) were administered by intra-prostate injection (0.2 ml) in the dorsolateral lobe on days 15 and 29. Animals were euthanized on day 42. Body weights were determined. Prostate glands were harvested and weighed. The experimental design is outlined in Table 2.
At necropsy, the dorsolateral and ventral lobes of the prostate were separated and cut into halves. The left halves were fixed in 10% neutral buffered formalin, sectioned, and stained with Hematoxylin and Eosin (H&E). Epithelial hyperplasia was recognized as an increase in epithelial cells within normal appearing gland profiles, as reflected in the stratification of epithelial cells and increased presence of epithelial tufting and papillary projections. Stromal changes were examined microscopically. These changes included inflammation and tissue fibroplasia. Each section was given a severity score ranging from 0 (not present) through 5 (severe).

[2] = system: testosterone (TE) and phenylephrine (PE) induced benign prostate hyperplasia in rats; test: Testosterone (TE) and phenylephrine (PE) induced benign prostate hyperplasia in rats, intra-prostate injection (Example 1); assay type: in vivo, Male Wistar rats; conditions: for glandular hyperplasia as compared to the untreated TE/PE induced prostates: TE/PE induced rats, intra-prostate injection, histology
Description: BPH is a true hyperplastic process. Histologic studies have documented an increase in cell number. A study was conducted, therefore, to determine the effects of test compounds and vehicle on testosterone (TE) and phenylephrine (PE) induced benign prostate hyperplasia in rats. Male Wistar rats were induced with testosterone (2 mg/kg) plus phenylephrine (5 mg/kg) administered daily by subcutaneous injection on days 5 through 32. Vehicle or test compounds (all at 1% w/w), nintedanib, sunitinib, lenvatinib, and 0.5% doxazosin mesylate, were administered by intra-prostate injection (0.4 ml) in dorsolateral and ventral lobes on days 1 and 18. Animals were euthanized on day 32. Body weights were determined and prostate glands were harvested. The experimental design is outlined in Table 1.
At necropsy, the ventral and dorsolateral lobes of the prostate were separated and then cut into halves. The left halves were fixed in 10% neutral buffered formalin, sectioned, and stained with Hematoxylin and Eosin (H&E). Histological changes in these sections were scored. Epithelial hyperplasia was recognized as an increase in epithelial cells within normal-appearing gland profiles, primarily reflected by stratification of epithelial cells and increased presence of epithelial tufting and papillary projections. A severity grade of 0 (not present) through 5 (severe) was assigned to each sample.

[3] = system: suture induced fibrosis model in rabbits; test: Suture induced fibrosis model in rabbits (cornea), topical administration (Example 4); assay type: in vivo; conditions: 0.3% w/w topical, three times daily for 10 days, Day 11; for fibroplasia and/or collagen density (histological staining, Masson's trichrome): FIG. 8
Description: A study was conducted to determine the potential beneficial effects of topical administration of test compounds and vehicle in a suture induced fibrosis model in rabbits. Sutures were placed intrastromally, under a microscope, in the cornea of rabbits. In each eye, one 9-0 silk suture was placed, in a vertical position, temporal to the center of the cornea and a second suture was placed nasal to the corneal center. Each suture had two stromal incursions approximately 2 mm from the limbus. Test compounds having a certain spectrum of multikinase inhibition activities, or vehicle, were topically instilled (35 μL/eye) in the eyes three times daily for 10 days following surgery. The treatment groups include vehicle, nintedanib (0.3%, w/w), sorafenib (0.3%, w/w) and lenvatinib (0.3%, w/w). Six left eyes were used per treatment group.
During the in-life phase, gross ocular observations of very slight to moderate conjunctival congestion and swelling were similar among groups, including the vehicle control. The animals were sacrificed on Day 11 and eyes enucleated and dissected for histopathological evaluation.

[4] = system: laser induced choroidal neovascularization; test: Laser induced choroidal neovascularization in rat eyes (Example 5); assay type: in vivo; conditions: Day 22, FIG. 9; for lesion sizes relative to vehicle (fluorescein angiography): topical eyedrop 1%, three times a day Days 2-21
Description: Increased expression of angiogenic factors, such as VEGF and bFGF, along with increased microvessel density, have been reported in benign prostatic hyperplasia, high grade prostate intraepithelial neoplasia and prostate cancer. […] In this example, the effect of local administration of multikinase inhibitors in a rat model of neovascularization was examined. New vessel growth is regulated by growth factor receptor signaling pathways, the functions of which broadly overlap among organs and tissues. In this study, effects of local administration of the multikinase inhibitors nintedanib and lenvatinib were examined by intravitreal injection or topical application to rat eyes following laser induced choroidal neovascularization. A 22-day study was conducted to determine the effects of test agents, positive control, or vehicle on the development of new vessels. On Day 1, laser treatments were performed on all animals using a 520 nm thermal laser to generate a total of three lesions per eye. On Days 2-21, bilateral topical administration of vehicle, 1% nintedanib, or 1% lenvatinib was performed three times a day. On Day 3, bilateral intravitreal injection of vehicle, 5 μg/eye of rat anti-VEGF antibody, 50 μg/eye of nintedanib, or 50 μg/eye of lenvatinib was performed in a second group of animals. On Day 22, fluorescein angiography was performed on all animals and lesion size/area was determined using image analysis software (ImageJ).

[5] = dorsolateral prostate, TE and PE induced, intra-prostate injection days 1 and 18, 1% w/w (doxazosin 0.5%), day 32, H&E, FIG. 1
[6] = ventral prostate, TE and PE induced, intra-prostate injection days 1 and 18, 1% w/w (doxazosin 0.5%), day 32, H&E, FIG. 2
[7] = intravitreal injection 50 μg/eye on Day 3
[8] = intra-prostate injection days 15 and 29, day 42, FIG. 5
[9] = TE+PE induced, intra-prostate injection days 15 and 29, day 42

| SMILES | epithelial hyperplasia score (severity grade 0 not present through 5 severe), representative image [2, 5] | glandular hyperplasia as compared to the untreated TE/PE induced prostates [2] | epithelial hyperplasia score (severity grade 0 not present through 5 severe), representative image [2, 6] | alpha SMA staining by immunohistochemical analysis relative to vehicle [3] | fibroplasia and/or collagen density (histological staining, Masson's trichrome) [3] | other results |
| --- | --- | --- | --- | --- | --- | --- |
| COC(=O)N(C)c1c(N)nc(-c2nn(Cc3ccccc3F)c3ncccc23)nc1N [riociguat] | – | – | – | – | – | effect on prostate volume and histological changes in epithelial hyperplasia ([1]; TE induced rats, 1% w/w intra-prostate): showed an effect on prostate volume and histological changes in epithelial hyperplasia; mean prostate weight/100 g body weight compared to vehicle control ([1]; TE induction days 1-28, intra-prostate injection days 15 and 29, day 42, FIG. 5): reduced the mean prostate weight; epithelial hyperplasia score (0 not present through 5 severe), representative image ([1]; TE induced, intra-prostate injection days 15 and 29, day 42): 1 |
| CCN(CC)CCNC(=O)c1c(C)[nH]c(/C=C2\C(=O)Nc3ccc(F)cc32)c1C [sunitinib] | 3 | – | – | – | – | epithelial hyperplasia score (severity grade 0 not present through 5 severe), representative image ([2]; 768 h): 3 |
| COc1cc2nccc(Oc3ccc(NC(=O)NC4CC4)c(Cl)c3)c2cc1C(N)=O [lenvatinib] | 2 | demonstrated reduction of glandular hyperplasia | 3 | significantly reduced alpha SMA staining | significantly reduced fibroplasia and/or collagen density | lesion sizes relative to vehicle-treated eyes (fluorescein angiography) [4, 7]: significantly reduced lesion sizes; lesion sizes relative to positive control, rat anti-VEGF (fluorescein angiography) ([4]; intravitreal injection 50 μg/eye on Day 3, anti-VEGF 5 μg/eye): significantly reduced lesion sizes; lesion sizes relative to vehicle (fluorescein angiography) [4]: reduced lesion sizes |
| COC(=O)c1ccc2c(c1)NC(=O)/C2=C(\Nc1ccc(N(C)C(=O)CN2CCN(C)CC2)cc1)c1ccccc1 [nintedanib] | 3 | demonstrated reduction of glandular hyperplasia | 3 | significantly reduced alpha SMA staining | significantly reduced fibroplasia and/or collagen density | lesion sizes relative to vehicle-treated eyes (fluorescein angiography) [4, 7]: significantly reduced lesion sizes; lesion sizes relative to vehicle (fluorescein angiography) [4]: reduced lesion sizes |
| COc1cc2nc(N3CCN(C(=O)C4COc5ccccc5O4)CC3)nc(N)c2cc1OC (stereo not drawn) [doxazosin, doxazosin mesylate] | 3 | demonstrated reduction of glandular hyperplasia | 3 | – | – | – |
| CNC(=O)c1cc(Oc2ccc(NC(=O)Nc3ccc(Cl)c(C(F)(F)F)c3)cc2)ccn1 [sorafenib] | – | – | – | no effect on alpha SMA | little or no effect | mean prostate weight/100 g body weight compared to vehicle [1, 8]: did not show a reduction in mean prostate weight; inhibition of benign prostate hyperplasia / therapeutic effect in the prostate ([1]; TE+PE induced rats, 1% w/w intra-prostate): not an effective inhibitor; also recorded: did not show any therapeutic effect; epithelial hyperplasia score (0 not present through 5 severe), representative image [1, 9]: 2 |
| Cc1ccc(=O)n(-c2ccccc2)c1 [pirfenidone] | – | – | – | – | – | mean prostate weight/100 g body weight compared to vehicle [1, 8]: did not show a reduction in mean prostate weight; epithelial hyperplasia score (0 not present through 5 severe), representative image [1, 9]: 1 |
